Test results from publication PMC9605497, “Potential of Epidermal Growth Factor-like Peptide from the Sea Cucumber Stichopus horrens to Increase the Growth of Human Cells: In Silico Molecular Docking Approach” (Marine Drugs, 2022).
Entries after “also recorded” stand apart in the source; their conditions may differ.

Tested on: EGF/PDGF pathway genes
Test: qPCR array of EGF/PDGF pathway genes
Format: cell-based, human
Set-up: key to expression class: +: Maximum expression; −: Minimum expression; unc.: Unchanged
Conditions: 10 nM, 4 h; for fold change: vs serum-free medium
Method: Cells were seeded at 80,000 cells per well of 24-well plates in 400 µL of complete growth medium. Cells were grown in MEM basal medium supplemented with 10% FBS and 1% antibiotic–antimycotic in a humidified incubator at 37 °C, equilibrated with 5% CO2. After 24 h of culture, the medium was removed, washed once with PBS, replaced with serum-free medium and left to culture for another 16 h. Medium was removed and replaced with corresponding treatment medium each in triplicates; 10 nM and 50 nM of Sh-EGFl-1, 10 nM and 50 nM of rhEGF were used as a positive control and serum-free medium was used as a negative control. Cells were harvested after 4 h. Medium was removed and 200 μL of Trizol reagent (Thermo Scientific, Waltham, MA, USA) was immediately added.
RNA extraction was performed according to Trizol reagent manufacturer’s protocol. An elution volume of 15 μL RNase-free water was added before the concentration and purity were determined using NanoDrop.
A total of 100 ng RNA was used initially for the cDNA synthesis reaction. The reaction was carried out according to RT^2 First Strand Kit’s protocol (Qiagen, Venlo, Netherlands). Genomic DNA was removed according to the manufacturer’s protocol prior to cDNA strand generation.
The 10 μL cDNA of human skin cells was diluted with 91 μL prior to qPCR reaction. Primer pairs of 84 genes involved in the EGF pathway, five housekeeping genes such as ribosomal protein large, P0 (RPL0), glyceraldehyde-3-phosphate-dehydrogenase (GAPDH), beta-actin (ACTB), beta-2-microglobulin (B2M) and hypoxanthine phosphoribosyltransferase 1 (HPRT1), one positive control gene for genomic DNA contamination, three reverse transcription control genes and three PCR-positive controls were included in the Qiagen PAHS-040ZA qPCR array plate (Qiagen, Venlo, Netherlands). A list of all genes analyzed in this study is available in Supplementary Materials Table S7. The mixture reaction was prepared according to the protocol and run using BioRad CFX96TM. Samples of 10 nM rhEGF and 10 nM Sh-EGFl-1 were prepared in duplicates. The following thermal profile was applied: 1 cycle at 95 °C for 10 min, 40 cycles at 95 °C for 15 s, 60 °C for 1 min, with the ramp rate from 95 °C to 60 °C was set at 1 °C every second. The data were then analyzed through Qiagen web portal. Data for serum-free medium were selected as a control group and the differences in gene expression between control and treatment groups were calculated using the 2^(−delta delta CT) method. The difference, known as fold change, was obtained from the delta delta CT values, which are the genes of interest and the average housekeeping genes, followed by the delta delta CT (delta CT (treatment group)—delta CT (control group)).

[1] = IKBKB (IKK), PLC gamma signaling
[2] = PLCG1 (PLC), PLC gamma signaling
[3] = PPP2CA (TSC2), PLC gamma signaling
[4] = RASA1 (p120GAP), MAPK signaling
[5] = RPS6KA5 (p70S6K), MAPK signaling
[6] = RPS6KA5 (p70S6K), PI3K signaling
[7] = RPS6KA5 (p70S6K), PLC gamma signaling
[8] = RPS6KB1 (p70S6K), MAPK signaling
[9] = RPS6KB1 (p70S6K), PI3K signaling
[10] = RPS6KB1 (p70S6K), PLC gamma signaling

H-NINECFSSPCENQGICQDEIDGYNCVCQPGFTGTHCESSMLNHVI-OH (disulfide) [Sh-EGFl-1, 45 amino acid EGF-like peptide from Stichopus horrens contig 498513, synthesized by Fmoc solid-phase peptide chemistry]
gene expression of individual genes, in words: relatively high expression of MAPK8, MAPK9, MAP2K7, MKK, MAPK1, ELK1 and c-JUN; also recorded: high expression of Src, Ras, Kras and Raf; also recorded: IL-2 is minimally expressed; also recorded: increased expression of the adaptor proteins Shc, Sos and Grb2
signaling pathways activated (qPCR array): phosphoinositide 3-kinase (PI3K), mitogen-activated protein kinase (MAPK), phospholipase C gamma (PLC-gamma), Janus kinase-signal transducer and activator of transcription (JAK-STAT) and Ras homologous (Rho) pathways; also recorded: PI3K–AKT–GSK3, Ras–Raf–MEK–ERK–MAPK, PLC gamma, STAT and Rho signaling pathways
gene expression profile, EGF/PDGF pathway (qPCR array heat map): upregulation of most genes involved in EGF/PDGF pathways
expression class (AKT1, PI3K signaling): +
fold change (AKT1, PI3K signaling): (0.95)
expression class (AKT3, PI3K signaling): +
fold change (AKT3, PI3K signaling): (1.11)
expression class (ATF1, MAPK signaling): +
expression class (ATF2, MAPK signaling): +
fold change (ATF2, MAPK signaling): (0.89)
expression class (CASP3, MAPK signaling): +
fold change (CASP3, MAPK signaling): (1.05)
expression class (CASP9, MAPK signaling): +
fold change (CASP9, MAPK signaling): (0.93)
expression class (CBL, MAPK signaling): −
fold change (CBL, MAPK signaling): (1.00)
expression class (CCND1, PI3K signaling): −
fold change (CCND1, PI3K signaling): (1.17)
expression class (DUSP1, MAPK signaling): +
fold change (DUSP1, MAPK signaling): (0.97)
expression class (DUSP6, MAPK signaling): +
fold change (DUSP6, MAPK signaling): (1.05)
expression class (E1F4E, PI3K signaling): +
fold change (E1F4E, PI3K signaling): (1.28)
expression class (ELK1, JAK-STAT signaling): +
fold change (ELK1, JAK-STAT signaling): (1.08)
expression class (FOS, JAK-STAT signaling): +
fold change (FOS, JAK-STAT signaling): (1.50)
expression class (GAB1, PI3K signaling): +
fold change (GAB1, PI3K signaling): (1.00)
expression class (GRB2, PI3K signaling): +
fold change (GRB2, PI3K signaling): (1.07)
expression class (GSK3A, PI3K signaling): unc.
fold change (GSK3A, PI3K signaling): (0.87)
expression class (GSK3B, PI3K signaling): +
fold change (GSK3B, PI3K signaling): (1.06)
expression class (HRAS, MAPK signaling): +
fold change (HRAS, MAPK signaling): (0.93)
expression class (IKBKB (IKK), PI3K signaling): +
fold change (IKBKB (IKK), PI3K signaling): (1.06)
expression class [1]: +
fold change [1]: (1.06)
expression class (IKBKB, MAPK signaling): +
expression class (JAK1, JAK-STAT signaling): +
fold change (JAK1, JAK-STAT signaling): (1.02)
expression class (JUN, JAK-STAT signaling): +
fold change (JUN, JAK-STAT signaling): (1.32)
expression class (MAP2K1 (MEK1), MAPK signaling): unc.
fold change (MAP2K1 (MEK1), MAPK signaling): (0.91)
expression class (MAP2K4 (MKK4), MAPK signaling): unc.
fold change (MAP2K4 (MKK4), MAPK signaling): (0.84)
expression class (MAP2K7 (MKK7), MAPK signaling): +
fold change (MAP2K7 (MKK7), MAPK signaling): (1.0)
expression class (MAP3K2 (MEKK2), MAPK signaling): +
fold change (MAP3K2 (MEKK2), MAPK signaling): (1.27)
expression class (MAPK1 (ERK2), MAPK signaling): +
fold change (MAPK1 (ERK2), MAPK signaling): (1.03)
expression class (MAPK3 (ERK1), MAPK signaling): +
fold change (MAPK3 (ERK1), MAPK signaling): (0.98)
expression class (MAPK8, MAPK signaling): +
fold change (MAPK8, MAPK signaling): (0.99)
expression class (MAPK9, MAPK signaling): unc.
fold change (MAPK9, MAPK signaling): (0.80)
expression class (MAPK10, MAPK signaling): −
fold change (MAPK10, MAPK signaling): (0.55)
expression class (MKNK1, MAPK signaling): −
fold change (MKNK1, MAPK signaling): (0.82)
expression class (NFATC3, MAPK signaling): +
fold change (NFATC3, MAPK signaling): (1.22)
expression class (NFKB, PI3K signaling): +
fold change (NFKB, PI3K signaling): (1.02)
expression class (NFKB, PLC gamma signaling): +
fold change (NFKB, PLC gamma signaling): (1.02)
expression class (P13KCA, PI3K signaling): +
fold change (P13KCA, PI3K signaling): (1.47)
expression class (PDPK1 (PDK1), PI3K signaling): unc.
fold change (PDPK1 (PDK1), PI3K signaling): (0.95)
expression class (PIK3R1, PI3K signaling): +
fold change (PIK3R1, PI3K signaling): (0.98)
expression class (PIK3R2, PI3K signaling): +
fold change (PIK3R2, PI3K signaling): (1.17)
expression class [2]: +
fold change [2]: (1.18)
expression class [3]: +
fold change [3]: (0.94)
expression class (PRKCA, PLC gamma signaling): +
fold change (PRKCA, PLC gamma signaling): (1.10)
expression class (RAP1A, MAPK signaling): +
fold change (RAP1A, MAPK signaling): (1.14)
expression class [4]: +
fold change [4]: (1.07)
expression class (RHOA, Rho signaling): +
fold change (RHOA, Rho signaling): (1.08)
expression class [5]: +
fold change [5]: (0.97)
expression class [6]: +
fold change [6]: (0.97)
expression class [7]: +
fold change [7]: (0.97)
expression class [8]: +
fold change [8]: (1.00)
expression class [9]: +
fold change [9]: (1.00)
expression class [10]: +
fold change [10]: (1.00)
expression class (SHC1, MAPK signaling): +
fold change (SHC1, MAPK signaling): (0.94)
expression class (SHC1, PI3K signaling): +
fold change (SHC1, PI3K signaling): (0.94)
expression class (SRC, JAK-STAT signaling): +
fold change (SRC, JAK-STAT signaling): (1.18)
expression class (STAT3, JAK-STAT signaling): +
fold change (STAT3, JAK-STAT signaling): (1.06)
expression class (STAT5, JAK-STAT signaling): +
fold change (STAT5, JAK-STAT signaling): (1.06)
expression class (TP53, MAPK signaling): +
fold change (TP53, MAPK signaling): (0.96)
expression class (TP53, PI3K signaling): +
fold change (TP53, PI3K signaling): (0.96)
